# Key:
# [1] = tested on: esophageal cancer with multiple lymphatic metastases; assay: Case Study 10; assay type: in vivo, human
# Experimental: A person was diagnosed with esophageal cancer with multiple lymphatic metastases. Their blood chemistry profile was normal, but their CEA levels were 6.7 ng/mL. The patient presented symptoms of extreme fatigue, difficult swallowing, chest pains, fever and weight loss. An endoscopy reveled a 4.2 cm×3.7 cm lesion on their esophagus. The tumor had poorly differentiated adenocarcinoma. […] The patient underwent treatments of 200 mg of zinc iodide mixing with 1000 mL of 0.9% sodium chloride solution and in 10 mL of DMSO, 6 times/week for 4 weeks. […] They also stopped steroid treatment. […] After 24 days of the infusion treatment, they began taking 50 mg Zinc Iodide capsules, 3 times/day for 90 days.
# [2] = tested on: adenocarcinoma of the pancreatic head; assay: Case Study 6; assay type: in vivo, human; parameters: total bilirubin: unit not given here
# Experimental: A person had symptoms of weight loss and abdominal pain over a 2-month period. […] At the head, there was a 38-mm×42 mm mass detected. In addition, their intrahepatic billiard tree was dilated. The patient was given 125 mg of Zinc Iodide mixing with 1000 ml of sodium chloride 0.9% and 10 ml of DMSO through infusion daily for 20 days. […] They gained 4 kg of body weight. […] The patient is symptom free.
# [3] = tested on: stage IV breast cancer metastasized to lungs and brain; assay: Case Study 3; assay type: in vivo, human
# Experimental: A patient was diagnosed with stage IV breast cancer and invasive ductal carcinoma metastasized to multiple organs (lungs and brain). […] They then took 3 dosages of 50 mg of zinc iodide per day orally. A chest ray was taken 61 days after the start of treatment, as shown the lung metastases decreased by more than 60%.
# [4] = tested on: prostate cancer with diffuse metastases; assay: Case Study 7; assay type: in vivo, human
# Experimental: A patient had prostate cancer with diffuse metastases, along with severe leg pain. They underwent hormonal therapy, until they developed severe bone pain. They took voltaren injections and solumedrol infusions to alleviate the pain. […] The patient was weak and lost 5 kg of weight in a month. They began the treatment with 125 mg of Zinc Iodide mixing with 1000 ml of sodium chloride 0.9% and 10 ml of DMSO through infusion. […] Their RBC, hemoglobin and serum calcium levels all normalized; and their PSA decrease dramatically to 40 ng/mL. Their quality of life improved greatly, and they had no symptoms.
# Case Study 15 = assay type: in vivo, human
# Experimental: Due to this, they were hospitalized 4-5 times/year. For 3 years, they used a corticosteroid inhaler, bronchodilator, antibiotics and COPD medication to no avail. They were also taking hypertension medication as a result of the COPD treatment. Their blood pressure was 160/96 and Forced Expiratory Volume (FEV1) at 58%. The patient was treated with 3-50 mg Zn Iodide capsules/day. […] […] (FEV1) was 67% and their blood pressure decreased to 130/90. […] Even though they were not taking COPD medication, there were no signs of infections either.
# liver cancer = assay: Case Study 17; assay type: in vivo, human
# Experimental: A person with chronic hepatitis C presented symptoms of abdominal pain. […] They had also been diagnosed with type 2 diabetes three years prior. […] Within 5 days their abdominal pain disappeared, and […] general health improved. […] Their cancer related markers included: AFP: 678 IU/L, GOP: 146 IU/L, GPT: 126 IU/L, and GGT: 124 IU/L. The patient's blood glucose level was 6.7 mmol/L. For the next 90 days, the patient took 50 mg of zinc iodide orally in capsule form 3 times/day. […] Their cancer related markers included: AFP: 107 IU/L, GOP: 195 IU/L, GPT: 69 IU/L, and GGT: 115 IU/L. The patient's blood glucose level was 7.4 mmol/L.
# cholangiocarcinoma = assay: Case Study 9; assay type: in vivo, human; parameters: total bilirubin: unit not given here
# Text: A person presented with jaundice, abdominal discomfort and lack of appetite. They could not eat or drink properly. Over the last 3 months, their weight decreased by 8 kg. […] There was also a hypodense lesion with an intraductal growth type, sized at 3.6 cm×4.1 cm, on their liver. […] They were diagnosed with cholangiocarcinoma.
# [5] = tested on: pancreatic adenocarcinoma; assay: Case Study 16; assay type: in vivo, human
# Experimental: A person presented symptoms of abdominal pain, nausea, and vomiting. […] They also had multiple metastases on their liver. They were diagnosed with pancreatic adenocarcinoma. Their CA 19-9 (levels of tumor-associated antigens in the blood) was 365 U/mL. The patient was treated through infusion with 200 mg of zinc Iodide mixing with 1000 mL of 0.9% sodium chloride solution and 10 mL of DMSO. The symptoms presented improved after 2 days of treatment. […] After 35 days on the treatment, an ultrasound was taken of the pancreas. The tumor had decreased to 4.3 cm×5.2 cm. Their CA 19-9 levels decreased to 168 U/mL. After 40 treatments, the patient began treatment orally; they were given 50 mg zinc iodide capsules 3 times/day. After 155 days on the oral treatment, a CT of their pancreas was taken. The tumor decreased to 2.4 cm×3.6 cm. The liver metastasis decreased by 50% also.
# lung cancer = assay: Case Study 14; assay type: in vivo, human
# Experimental: A person presented with cough and chest pains that persisted over 6 months. In that time, they also lost 6 kg of weight. In the last 20 days, the patient developed hemoptysis, which lead them to hospitalization. […] They also had total opacification of the right lung. The patient was diagnosed with lung cancer and sent home. The patient was treated with 3-50 mg Zinc Iodide capsules/day for 120 days. After 5 days, their breathing capabilities and cough improved.
# [6] = MTT assays; salicylic acid alone
# [7] = 61 days after the start of treatment
# [8] = after further 90 days of oral treatment
# [9] = 105 days after the beginning of treatment
smiles,measurement,setting,value
"[I][Zn][I] [Zinc Iodide, zinc iodide]",lymph nodes,[1]; 105th day,clear of metastases
same,fever and pain,[1]; after 3 days,no symptoms of fever or pain
same,general health,[1]; after 3 days,improved
same,eating and drinking,[1]; within 3 weeks,could eat and drink normally
same,CA 19-9 level,[2]; 63rd day,46 U/mL
same,liver metastases,[2]; 63rd day,no indications of liver metastases
same,symptoms,[2]; after treatment,symptom free
same,total bilirubin,"[2]; at 10 days, before treatment 78",56
same,AST,"[2]; at 10 days, before treatment 113",73 U/L
same,GGT,"[2]; at 10 days, before treatment 149",149 U/L
same,ALT,"[2]; at 10 days, before treatment 187",73 U/L
same,CA 19-9,"[2]; at 10 days, before treatment 385",184 U/L
same,body weight gained,[2]; during oral treatment,4 kg
same,pain,[2]; within 7 days,completely disappeared
same,decrease of lung metastases,[3]; [7],more than 60%
same,reduction of brain metastases (MRI),[3]; [7],50%
same,"symptoms of coughing, headache and nausea",[3]; over 12 days of infusion,gradually improved
same,"RBC, hemoglobin and serum calcium levels",[4]; after oral treatment,normalized
same,symptoms,[4]; after oral treatment,no symptoms
same,ultrasound and x-ray scans,[4]; after oral treatment,no abnormalities
same,PSA,"[4]; after oral treatment, before treatment 260",40 ng/mL
same,pain medication,[4]; by day 20,stopped all pain medication
same,RBC count,"[4]; day 20, before treatment 3.2",4.2 million cells/uL
same,serum calcium levels,"[4]; day 20, before treatment 3.5",2.5 mmol/L
same,hemoglobin,"[4]; day 20, before treatment 9",10.7 g/dL
same,pain improvement,[4]; within 7 days,70%
same,Forced Expiratory Volume (FEV1),Case Study 15; 92 days after first treatment,75%
same,blood pressure,Case Study 15; 92 days after first treatment,125/90
same,shortness of breath,Case Study 15; 92 days after first treatment,no longer had shortness of breath
same,need for fast acting bronchodilator inhalers,Case Study 15; after 3 days,no longer needed fast acting bronchodilator inhalers
same,COPD related symptoms,Case Study 15; at 30 days,remarkable improvement
same,Forced Expiratory Volume (FEV1),"Case Study 15; at 30 days, before treatment 58%",67%
same,blood pressure,"Case Study 15; at 30 days, before treatment 160/96",130/90
same,COPD related episodes,Case Study 15; in the following 2 months,did not have any COPD related episodes
same,need for corticosteroid inhalers,Case Study 15; within 10 days,no longer needed corticosteroid inhalers
same,GOT,"liver cancer; after 10 days, GOT before treatment 326",224 IU/L
same,blood glucose level,"liver cancer; after 10 days, before treatment 8.5",7.6 mmol/L
same,GGT,"liver cancer; after 10 days, before treatment 251",93 IU/L
same,GPT,"liver cancer; after 10 days, before treatment 293",187 IU/L
same,AFP,"liver cancer; after 10 days, before treatment 1450",1209 IU/L
same,AFP,liver cancer; after 21 days,678 IU/L
same,GGT,liver cancer; after 21 days,124 IU/L
same,GOT,liver cancer; after 21 days,146 IU/L
same,GPT,liver cancer; after 21 days,126 IU/L
same,blood glucose level,liver cancer; after 21 days,6.7 mmol/L
same,AFP,liver cancer; [8],107 IU/L
same,GGT,liver cancer; [8],115 IU/L
same,GOT,liver cancer; [8],195 IU/L
same,GPT,liver cancer; [8],69 IU/L
same,blood glucose level,liver cancer; [8],7.4 mmol/L
same,abdominal pain,liver cancer; within 5 days,disappeared
same,GGT levels,cholangiocarcinoma; 105 days,784 U/L
same,GOT levels,cholangiocarcinoma; 105 days,67 U/L
same,GPT levels,cholangiocarcinoma; 105 days,54 U/L
same,total bilirubin,cholangiocarcinoma; 105 days,28
same,symptoms,cholangiocarcinoma; [9],no longer experienced symptoms
same,weight gained,cholangiocarcinoma; [9],4 kg
same,GPT,"cholangiocarcinoma; after 10 days, before treatment 127",97 U/L
same,total bilirubin,"cholangiocarcinoma; after 10 days, before treatment 139",75
same,GOT,"cholangiocarcinoma; after 10 days, before treatment 163",121 U/L
same,GGT,"cholangiocarcinoma; after 10 days, before treatment 1410",1267 U/L
same,GGT,cholangiocarcinoma; at 21 days,978 U/L
same,GOT,cholangiocarcinoma; at 21 days,85 U/L
same,GPT,cholangiocarcinoma; at 21 days,193 U/L
same,jaundice,cholangiocarcinoma; at 21 days,improved
same,total bilirubin,cholangiocarcinoma; at 21 days,56
same,digestive health,cholangiocarcinoma; within 5 days,improved significantly
same,symptoms,[5]; after 2 days of treatment,improved
same,CA 19-9 levels,"[5]; after 35 days, before treatment 365",168 U/mL
same,decrease of liver metastasis,[5]; after 155 days on the oral treatment,50%
same,symptoms,[5]; by the 5th day,almost symptom-free
same,breathing capabilities and cough,lung cancer; after 5 days,improved
same,clearance of opacification (CT),lung cancer; after 121 days,80%
same,blood in sputum,lung cancer; by 12 days,no longer had blood in their sputum
O=C(O)c1ccccc1O [salicylic acid],cellular activity,[6],no effect on cellular activity

# Reference: patent US20180353539A1, “METAL COMPLEXES AS PHARMACEUTICALS FOR TREATMENT AND PREVENTION OF CANCER AND INFLAMMATORY DISEASES” (UNIVERSITY OF SOUTHERN CALIFORNIA, priority 2017, published 2018)
